For test [1], the system named is colonic mucus layer and infiltrated neutrophils. In words: Human colonic explant infected with Shigella flexneri, two-photon microscopy. As to conditions: 1 μg/mL, after fixation and permeabilization. The text has this: Ex vivo infection of human colonic tissue. Human colon explants were infected with S. flexneri 5a (M90T) pGFP, as described in (Nothelfer et al. 2014) and adapted from (Coron et al. 2009). Briefly, colonic tissues were cut into ˜5 cm^2 segments and pinned flat, with the submucosa facing down, onto a 4% agarose layer in tissue culture Petri dishes containing DMEM/F12 culture medium (Invitrogen) supplemented with 10% FBS, glutamine, and 2.1 g/L NaHCO3(Sigma-Aldrich). S. flexneri (M90T) 5a pGFP was added at ˜2×10^8 bacteria per cm^2 of tissue. Bacteria were allowed to settle for 15 min at room temperature before incubation at 37° C., 5% CO2 for 6 h on a slowly rocking tray. Tissue was fixed by overnight incubation with 4% PFA (Euromedex) and 0.1 M Hepes (Gibco) in PBS. For whole-mount staining, tissues were fixed on a 40×11-mm tissue culture dish (TPP) with Histoacryl tissue glue (Braun). To obtain 150-μm-thick sections, the tissue was embedded in low-melting agarose according to (Snippert et al. 2011) and cut with a vibratome (VT1000E; Leica).
Two-photons microscopy. […] MUB40-Cy5 was detected using multiphoton excitation (MPE, magenta), Acquisitions were performed with Zen 2008 SP 1.1 software acquisition package developed by ZEISS. […]

The test system of test [2] is Human hematopoietic stem cells (CD34+). The test is described as follows: Labelling of hematopoietic stem cells and derived neutrophils. It counts as cell-based. The protocol:
Hematopoietic Stem cells (CD34+) purification, proliferation and differentiation. HSC were purified from cytapheresis products with a CD34 Microbead Kit Ultrapure, according to the manufacturer procedure (Miltenyi). Lin^−/CD34+ HSC purity yield was >98%. CD34+ HSC were cultured in StemSpan SFEM II supplemented with SCF (100 ng/ml), IL-3 (10 ng/ml), and IL-6 (100 ng/ml) at 37° C. with 5% CO2. Neutrophil differentiation was induced in StemSpan SFEM II containing G-CSF (10 ng/ml), SCF (100 ng/ml), and IL-3 (10 ng/ml) for 13 days at 37° C. with 5% CO2.

Test [3] relates to guinea pig circulating neutrophils. In words: Labelling of fixed guinea pig neutrophils. It counts as cell-based. On the procedure:
Polymorphonuclear neutrophils purification. Human polymorphonuclear neutrophils were purified as described previously (Monceaux et al. 2016). Briefly, plasma was removed by centrifugation (450×g, 15 min); blood cells were resuspended in 0.9% NaCl solution supplemented with 0.72% Dextran. After red blood cells sedimentation, white blood cells were pelleted and further separated on a two layer Percoll (GE Healthcare) (51%−42%) by centrifugation (at 240×g, 20 min). PBMC (top layer) were isolated from polymorphonuclear neutrophils (bottom layer). Red blood cells were removed from the latter fraction using CD235a (glycophorin) microbeads (negative selection) (Miltenyi Biotec). PBMCs and polymorphonuclear neutrophils were resuspended in the autologous plasma. Guinea pig and mouse polymorphonuclear neutrophils were purified with the same procedure.

In test [4] the test system is cystic fibrosis (CF) patients sputum. In words: CF patient sputum immunofluorescent staining. Further details: species or system human. The note with it: together with anti-Muc2 and anti-Muc5ac antibodies, 1 μg/mL. On the procedure: FIG. 4. CF patient sputum immunofluorescent staining with MUB40-Cy5 (SEQ ID NO: 3), anti-Muc2 and anti-Muc5ac antibodies (with secondary antibodies conjugated with FITC and Rhodamin respectively).
Muc2 was stained with an anti-Mucin2 antibody (green). Muc5ac was stained with an anti-Mucin5ac antibody (red). Tissue was additionally stained with MUB40-Cy5 (1 μg/mL, magenta). DNA was stained with Dapi (blue).

In test [5] the target is T1, human purified lactoferrin (Homo sapiens, UniProt P02788).
T1 construct: purchased Sigma-Aldrich L1294
The test is described as follows: Lactoferrin polymers immunofluorescence labelling. It counts as binding. As to conditions: PNGase treatment; listed as MUB40-Cy5. On the procedure: Lactoferrin polymerization. Human purified lactoferrin (ref: L1294, Sigma-Aldrich) was resuspended in deionized H2O (35 μg/mL). Lactoferrin was incubated in RPMI+10 mM Hepes supplemented with 10 mM FeCl3, at indicated concentrations (0.35 or 3.5 μg/mL) onto 24-well plates containing 12 mm coverslips overnight at 37° C., adapted from similar lactoferrin polymerization experiments performed in iron saturated phosphate buffer (Mantel et al. 1994).
Lactoferrin deglycolysation. About 10 μg of human purified lactoferrin (ref: L1294, Sigma-Aldrich) was treated by Peptide-N-Glycosidase F (PNGaseF, New England Biolabs, Ipswich Mass., USA) for N-deglycosylation. Protein was treated exactly as described in manufacturer protocol. Twelve unit of PNGase F were added for 4 h at 37° C. for the removal of N-glycosylation.
Lactoferrin polymers interaction with MUB40-Cy5. Lactoferrin polymers were centrifuged at 2000 rpm for 10 min and fixed in Paraformaldehyde (PFA) 4% for one hour. Lactoferrin polymers were immunolabeled in PBS+0.1% saponin (Sigma-Aldrich) with a mouse anti-lactoferrin primary monoclonal antibody (Hycult biotech, clone 265-1K1, 1:50 dilution) and an anti-mouse-FITC conjugated secondary antibody (1:1000), together with MUB40-Cy5 (SEQ ID NO: 3) (1 μg/mL). Slides were washed three times in PBS and three times in deionized H2O and mounted with prolong gold^tm mounting media.

Test [6] deals with recruited neutrophils and secreted lactoferrin. In words: Labelling of human inflamed tissue biopsies. As to conditions: malignant fibrous histiocytoma and streptococcal skin abscess biopsies, 1 μg/mL. The source says: Human inflammatory tissues. Human biopsies from patients diagnosed for malignant fibrous histiocytoma and for a streptococcal skin abscess were collected and processed at the Kremlin Bicêtre Hospital, Anatomy and Pathological Histology Department. Tissue samples were fixed in formaldehyde and further embedded in paraffin. 10 μm sections were obtained using a microtome (Leica Biosystem). Tissues were labeled with a mouse anti-lactoferrin primary monoclonal antibody (Hycult biotech, clone 265-1K1, 1:50 dilution), MUB40-Cy5 (SEQ ID NO: 3) (1 μg/mL), and Dapi (1:1000 dilution) as described below.

Data on one substance can be found in patent publication US11472844B2, “Peptidomimetics, method of synthesis and uses thereof” (priority 2017, dated 2022).

“Also recorded” adds a separate entry of the source. *: point of attachment. X1 = CC[N+]1=C(/C=C/C=C/C=C2N(CCCCCC(=O)NCCN3C(=O)CC(*)C3=O)c3ccc(S(=O)(=O)O)cc3C2(C)C)C(C)(C)c2cc(S(=O)(=O)[O-])ccc21

T1 sequence (P02788 20-710): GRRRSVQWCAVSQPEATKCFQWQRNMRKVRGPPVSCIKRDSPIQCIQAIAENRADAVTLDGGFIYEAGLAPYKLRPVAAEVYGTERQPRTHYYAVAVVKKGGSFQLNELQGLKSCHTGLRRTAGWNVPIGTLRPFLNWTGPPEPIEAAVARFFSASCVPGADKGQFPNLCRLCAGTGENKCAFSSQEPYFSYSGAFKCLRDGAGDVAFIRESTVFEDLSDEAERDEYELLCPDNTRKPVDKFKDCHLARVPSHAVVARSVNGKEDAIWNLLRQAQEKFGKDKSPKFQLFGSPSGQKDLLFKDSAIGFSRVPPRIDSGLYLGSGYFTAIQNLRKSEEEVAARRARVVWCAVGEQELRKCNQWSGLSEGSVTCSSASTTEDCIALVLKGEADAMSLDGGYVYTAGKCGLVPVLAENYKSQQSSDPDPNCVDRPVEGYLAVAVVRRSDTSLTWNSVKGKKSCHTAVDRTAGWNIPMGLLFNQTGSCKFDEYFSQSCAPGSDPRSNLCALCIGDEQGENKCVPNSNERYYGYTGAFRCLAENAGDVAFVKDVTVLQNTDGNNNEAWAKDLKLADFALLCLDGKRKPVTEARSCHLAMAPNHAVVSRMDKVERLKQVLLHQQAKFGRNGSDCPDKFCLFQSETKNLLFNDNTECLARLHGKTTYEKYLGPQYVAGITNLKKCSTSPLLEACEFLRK

Regarding “Ac-C(X1)TAEGIKKFEGDGYELFKDNFPAGEKFDNDDTNDQFYTVIF-NH2 [Cy5-MUB40#1]”, in test [1], the “labelling of colonic mucus layer and infiltrated neutrophils” value was “labelled”. In addition, in test [2] (G-CSF, IL-3, IL-6, 2 weeks), the “labelling after differentiation in polymorphonuclear neutrophils” value is “positive staining”. Moreover, in test [2] (during proliferation), the “labelling of hematopoietic stem cells” value was “not labelled”. Further, the labelling of neutrophils result in test [3] is reported as “efficiently labeled”. In addition, the “labelling of CF patients sputum” value in test [4] is given as “labeled”. Moreover, in test [5], the “labelling of deglycosylated lactoferrin” value was “no longer labelled; also recorded: abolished”. Moreover, in test [6], the “labelling of recruited neutrophils and secreted lactoferrin” value is reported as “labeled”.
